Source: ChEMBL document CHEMBL1201862, “PubChem BioAssay data set” (2004)
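Cells were grown in 96-well plates and exposed to each compound for 48 hours at five concentrations; endpoints were interpolated linearly between bracketing concentrations, or set to the highest concentration if not reached. At the GI50, growth is halved.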 Calls of active or inactive are those of the source. No stated cut-off is given here; in the data, active = GI50 up to about 1.1 µM and inactive = higher.

Tests used:
Assay in all cases: growth of human tumour cells (NCI), 48 h
786-0 = test system: 786-0
A549 = test system: A549
ACHN = test system: ACHN
BT-549 = test system: BT-549
CAKI-1 = test system: CAKI-1
CCRF-CEM = test system: CCRF-CEM
COLO 205 = test system: COLO 205
DU-145 = test system: DU-145
EKVX = test system: EKVX
HCC 2998 = test system: HCC 2998
HCT-116 = test system: HCT-116
HCT-15 = test system: HCT-15
HOP-62 = test system: HOP-62
HOP-92 = test system: HOP-92
HT-29 = test system: HT-29
Hs-578T = test system: Hs-578T
IGROV-1 = test system: IGROV-1
K562 = test system: K562
KM12 = test system: KM12
LOX IMVI = test system: LOX IMVI
M14 = test system: M14
MCF7 = test system: MCF7
MDA-MB-231 = test system: MDA-MB-231
MDA-MB-435 = test system: MDA-MB-435
MDA-N = test system: MDA-N
MOLT-4 = test system: MOLT-4
Malme-3M = test system: Malme-3M
NCI-H226 = test system: NCI-H226
NCI-H23 = test system: NCI-H23
NCI-H460 = test system: NCI-H460
NCI-H522 = test system: NCI-H522
NCI/ADR-RES = test system: NCI/ADR-RES
OVCAR-3 = test system: OVCAR-3
OVCAR-4 = test system: OVCAR-4
OVCAR-5 = test system: OVCAR-5
OVCAR-8 = test system: OVCAR-8
PC-3 = test system: PC-3
RPMI-8226 = test system: RPMI-8226
SF-268 = test system: SF-268
SF-295 = test system: SF-295
SF-539 = test system: SF-539
SK-MEL-28 = test system: SK-MEL-28
SK-MEL-2 = test system: SK-MEL-2
SK-MEL-5 = test system: SK-MEL-5
SK-OV-3 = test system: SK-OV-3
SN12C = test system: SN12C
SNB-19 = test system: SNB-19
SNB-75 = test system: SNB-75
SW-620 = test system: SW-620
T47D = test system: T47D
TK-10 = test system: TK-10
U-251 = test system: U-251
UACC-257 = test system: UACC-257
UACC-62 = test system: UACC-62
UO-31 = test system: UO-31
A498 = test system: A498
HL-60 = test system: HL-60
RXF 393 = test system: RXF 393

COc1ccc2c(c1)c1c(n2CCN(C)C)-c2ccccc2CC1
GI50 (786-0): 16.1 µM (inactive) | GI50 (A549): 15.6 µM (inactive) | GI50 (ACHN): 16.4 µM (inactive) | GI50 (BT-549): 16.9 µM (inactive) | GI50 (CAKI-1): 14.3 µM (inactive) | GI50 (CCRF-CEM): 11.3 µM (inactive) | GI50 (COLO 205): 12.5 µM (inactive) | GI50 (DU-145): 15.9 µM (inactive) | GI50 (EKVX): 9.77 µM (inactive) | GI50 (HCC 2998): 18.2 µM (inactive) | GI50 (HCT-116): 15.2 µM (inactive) | GI50 (HCT-15): 13.7 µM | GI50 (HOP-62): 16.4 µM (inactive) | GI50 (HOP-92): 16.5 µM (inactive) | GI50 (HT-29): 7.78 µM (inactive) | GI50 (Hs-578T): 17.6 µM (inactive) | GI50 (IGROV-1): 11.9 µM (inactive) | GI50 (K562): 11.5 µM (inactive) | GI50 (KM12): 14.4 µM (inactive) | GI50 (LOX IMVI): 16.6 µM (inactive) | GI50 (M14): 15.6 µM (inactive) | GI50 (MCF7): 18.3 µM (inactive) | GI50 (MDA-MB-231): 13.6 µM (inactive) | GI50 (MDA-MB-435): 16.5 µM (inactive) | GI50 (MDA-N): 16 µM (inactive) | GI50 (MOLT-4): 13.2 µM (inactive) | GI50 (Malme-3M): 20.3 µM (inactive) | GI50 (NCI-H226): 12.2 µM (inactive) | GI50 (NCI-H23): 18 µM (inactive) | GI50 (NCI-H460): 16.7 µM (inactive) | GI50 (NCI-H522): 18.5 µM (inactive) | GI50 (NCI/ADR-RES): 16.8 µM (inactive) | GI50 (OVCAR-3): 16.6 µM (inactive) | GI50 (OVCAR-4): 16.9 µM (inactive) | GI50 (OVCAR-5): 18.2 µM (inactive) | GI50 (OVCAR-8): 16.9 µM (inactive) | GI50 (PC-3): 12.6 µM (inactive) | GI50 (RPMI-8226): 13.7 µM (inactive) | GI50 (SF-268): 18.1 µM (inactive) | GI50 (SF-295): 16.9 µM (inactive) | GI50 (SF-539): 14 µM (inactive) | GI50 (SK-MEL-28): 15 µM (inactive) | GI50 (SK-MEL-2): 16.1 µM (inactive) | GI50 (SK-MEL-5): 14.9 µM (inactive) | GI50 (SK-OV-3): 20.2 µM (inactive) | GI50 (SN12C): 14.1 µM (inactive) | GI50 (SNB-19): 15.7 µM (inactive) | GI50 (SNB-75): 13.7 µM (inactive) | GI50 (SW-620): 16.8 µM (inactive) | GI50 (T47D): 14.5 µM (inactive) | GI50 (TK-10): 15.9 µM (inactive) | GI50 (U-251): 13.1 µM (inactive) | GI50 (UACC-257): 16.3 µM (inactive) | GI50 (UACC-62): 14.5 µM (inactive) | GI50 (UO-31): 13.5 µM (inactive)

c1ccc([P+](c2ccccc2)(c2ccccc2)c2ccc(-c3ccc([P+](c4ccccc4)(c4ccccc4)c4ccccc4)cc3)cc2)cc1
GI50 (786-0): 25.9 µM (inactive) | GI50 (A498): 3.97 µM (inactive) | GI50 (A549): 27.7 µM (inactive) | GI50 (ACHN): 23.1 µM (inactive) | GI50 (BT-549): 47.9 µM (inactive) | GI50 (CAKI-1): > 100 µM (inactive) | GI50 (CCRF-CEM): 82.4 µM (inactive) | GI50 (COLO 205): 16.4 µM (inactive) | GI50 (DU-145): 63.8 µM (inactive) | GI50 (EKVX): 37 µM (inactive) | GI50 (HCC 2998): 47.4 µM (inactive) | GI50 (HCT-116): 18.2 µM (inactive) | GI50 (HCT-15): > 100 µM | GI50 (HL-60): > 100 µM (inactive) | GI50 (HOP-62): 46.5 µM (inactive) | GI50 (HT-29): 20.7 µM (inactive) | GI50 (Hs-578T): > 100 µM (inactive) | GI50 (IGROV-1): 3.67 µM (inactive) | GI50 (K562): > 100 µM (inactive) | GI50 (KM12): 75.5 µM (inactive) | GI50 (LOX IMVI): 23.3 µM (inactive) | GI50 (M14): 44.9 µM (inactive) | GI50 (MCF7): 36.8 µM (inactive) | GI50 (MDA-MB-231): 32.8 µM (inactive) | GI50 (MDA-MB-435): 26.7 µM (inactive) | GI50 (MDA-N): 29.3 µM (inactive) | GI50 (MOLT-4): > 100 µM (inactive) | GI50 (Malme-3M): 25.3 µM (inactive) | GI50 (NCI-H226): 30.8 µM (inactive) | GI50 (NCI-H23): 21.9 µM (inactive) | GI50 (NCI-H460): 27 µM (inactive) | GI50 (NCI-H522): 18.3 µM (inactive) | GI50 (NCI/ADR-RES): > 100 µM (inactive) | GI50 (OVCAR-3): 15.8 µM (inactive) | GI50 (OVCAR-4): 21.5 µM (inactive) | GI50 (OVCAR-5): 67.5 µM (inactive) | GI50 (OVCAR-8): 19.4 µM (inactive) | GI50 (PC-3): 35.5 µM (inactive) | GI50 (RPMI-8226): > 100 µM (inactive) | GI50 (RXF 393): 48.1 µM (inactive) | GI50 (SF-268): 58.5 µM (inactive) | GI50 (SF-295): 30.2 µM (inactive) | GI50 (SF-539): 40 µM (inactive) | GI50 (SK-MEL-28): 49.5 µM (inactive) | GI50 (SK-MEL-2): 24.3 µM (inactive) | GI50 (SK-MEL-5): 1.56 µM (inactive) | GI50 (SK-OV-3): 43.2 µM (inactive) | GI50 (SN12C): 26.5 µM (inactive) | GI50 (SNB-19): 50.7 µM (inactive) | GI50 (SW-620): 30.6 µM (inactive) | GI50 (T47D): 41.4 µM (inactive) | GI50 (TK-10): 34.8 µM (inactive) | GI50 (U-251): 7.94 µM (inactive) | GI50 (UACC-257): 19.8 µM (inactive) | GI50 (UACC-62): 56.6 µM (inactive)
